{"source": "patent US9738697B2", "about": "(Wisconsin Alumni Research Foundation, priority 2013, dated 2017)", "key": {"[1]": {"biological_target": "T1, chymotrypsin (Bos taurus, UniProt P00766)", "T1 construct": "purchased Promega V1062", "assay": "Protease assay with chymotrypsin (HPLC)", "format": "in vitro ADME", "details": "40 μM peptide, 50 μg/mL chymotrypsin, TBS pH 8.0, room temperature; read-out: t1/2 with chymotrypsin (converted)", "protocol": "(§1) An HPLC method from the literature was used to assess protease action on selected compounds.^29,31 Two nmol of solid peptide was dissolved in 40 μL of TBS pH 8.0 (resulting concentration of peptide=40 μM) before protease was added. Chymotrypsin was purchased from Promega (Fitchburg, Wis.; catalog #V1062), and neprilysin was purchased from Reprokine. Ltd. (Valley Cottage, N.Y.; catalog #RKP08473); stock solutions of 250 μg/mL chymotrypsin and 200 μg/mL neprilysin in water were prepared. A 10 μL aliquot of protease stock solution was added to 40 μL of 40 μM peptide solution to begin the reaction. Periodically, a 10 μL aliquot of the solution was removed, and protease action was halted by adding this aliquot to 100 μL of 1% aqueous TFA solution. A portion (100 μL) of the quenched solution was injected onto an HPLC column using the conditions described under “Peptide Synthesis”, and peaks were analyzed using MALDI-TOF MS. The time course of peptide degradation was experimentally determined by integrating the area of each peak in a series of HPLC traces. The area percent of parent peptide (relative to the initial trace) was calculated for each trace and plotted in GraphPad Prism as an exponential decay to determine half-life values.\n(§2) ID. […] Major backbone cut sites are indicated with double front slashes. […] Digestion occurs at three major cleavage sites. […] ID. NO: 7 with 50 μg/mL chymotrypsin in TBS pH 8.0 at room temperature. […] ID. NO: 9 with 50 μg/mL chymotrypsin in TBS pH 8.0 at room temperature. This peptide has seven substitutions, α→Aib."}, "[2]": {"tested_on": "T2, chymotrypsin", "T2 construct": "purchased Promega V1062", "assay": "Protease assay with chymotrypsin (HPLC)", "format": "in vitro ADME", "details": "chymotrypsin (50 μg/mL) in TBS; 50 μg/mL chymotrypsin, TBS pH 8.0, room temperature, 1500 seconds; read-out: peptide remaining after 1500 seconds", "protocol": "as §1, §2"}, "[3]": {"biological_target": "T3, neprilysin (Homo sapiens, UniProt P08473)", "T3 construct": "purchased Reprokine; Ltd. RKP08473", "T3 sequence (P08473 whole entry)": "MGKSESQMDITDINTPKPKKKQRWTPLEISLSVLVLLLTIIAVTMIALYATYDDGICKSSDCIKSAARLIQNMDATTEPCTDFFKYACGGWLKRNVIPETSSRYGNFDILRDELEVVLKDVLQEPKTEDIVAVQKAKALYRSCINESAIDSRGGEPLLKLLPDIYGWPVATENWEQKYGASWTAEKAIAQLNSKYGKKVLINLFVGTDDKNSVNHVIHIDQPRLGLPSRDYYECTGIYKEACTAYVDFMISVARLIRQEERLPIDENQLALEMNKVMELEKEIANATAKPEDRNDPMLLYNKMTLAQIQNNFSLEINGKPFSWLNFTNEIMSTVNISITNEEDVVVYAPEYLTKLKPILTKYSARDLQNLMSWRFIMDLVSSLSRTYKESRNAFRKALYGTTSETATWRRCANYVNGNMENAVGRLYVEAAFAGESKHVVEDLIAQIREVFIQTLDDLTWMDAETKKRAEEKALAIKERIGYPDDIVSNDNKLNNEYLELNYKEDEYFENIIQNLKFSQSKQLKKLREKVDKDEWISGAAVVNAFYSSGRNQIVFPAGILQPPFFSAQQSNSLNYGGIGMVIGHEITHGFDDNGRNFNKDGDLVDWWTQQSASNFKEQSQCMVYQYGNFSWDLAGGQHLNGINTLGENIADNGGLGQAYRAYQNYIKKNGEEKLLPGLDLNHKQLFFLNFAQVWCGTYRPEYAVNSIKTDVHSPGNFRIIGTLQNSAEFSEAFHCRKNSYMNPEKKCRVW", "assay": "Protease assay with neprilysin (HPLC)", "format": "in vitro ADME", "details": "40 μg/mL neprilysin", "method": "An HPLC method from the literature was used to assess protease action on selected compounds.^29,31 Two nmol of solid peptide was dissolved in 40 μL of TBS pH 8.0 (resulting concentration of peptide=40 μM) before protease was added. Chymotrypsin was purchased from Promega (Fitchburg, Wis.; catalog #V1062), and neprilysin was purchased from Reprokine. Ltd. (Valley Cottage, N.Y.; catalog #RKP08473); stock solutions of 250 μg/mL chymotrypsin and 200 μg/mL neprilysin in water were prepared. A 10 μL aliquot of protease stock solution was added to 40 μL of 40 μM peptide solution to begin the reaction. Periodically, a 10 μL aliquot of the solution was removed, and protease action was halted by adding this aliquot to 100 μL of 1% aqueous TFA solution. […] The time course of peptide degradation was experimentally determined by integrating the area of each peak in a series of HPLC traces. The area percent of parent peptide (relative to the initial trace) was calculated for each trace and plotted in GraphPad Prism as an exponential decay to determine half-life values.\nMajor backbone cut sites, as determined by MALDI-TOF-MS, are indicated with double front slashes."}, "[4]": {"biological_target": "T4, DPP-4 (Homo sapiens, UniProt P27487)", "T4 construct": "purchased EMD Biosciences 317640", "T4 sequence (P27487 whole entry)": "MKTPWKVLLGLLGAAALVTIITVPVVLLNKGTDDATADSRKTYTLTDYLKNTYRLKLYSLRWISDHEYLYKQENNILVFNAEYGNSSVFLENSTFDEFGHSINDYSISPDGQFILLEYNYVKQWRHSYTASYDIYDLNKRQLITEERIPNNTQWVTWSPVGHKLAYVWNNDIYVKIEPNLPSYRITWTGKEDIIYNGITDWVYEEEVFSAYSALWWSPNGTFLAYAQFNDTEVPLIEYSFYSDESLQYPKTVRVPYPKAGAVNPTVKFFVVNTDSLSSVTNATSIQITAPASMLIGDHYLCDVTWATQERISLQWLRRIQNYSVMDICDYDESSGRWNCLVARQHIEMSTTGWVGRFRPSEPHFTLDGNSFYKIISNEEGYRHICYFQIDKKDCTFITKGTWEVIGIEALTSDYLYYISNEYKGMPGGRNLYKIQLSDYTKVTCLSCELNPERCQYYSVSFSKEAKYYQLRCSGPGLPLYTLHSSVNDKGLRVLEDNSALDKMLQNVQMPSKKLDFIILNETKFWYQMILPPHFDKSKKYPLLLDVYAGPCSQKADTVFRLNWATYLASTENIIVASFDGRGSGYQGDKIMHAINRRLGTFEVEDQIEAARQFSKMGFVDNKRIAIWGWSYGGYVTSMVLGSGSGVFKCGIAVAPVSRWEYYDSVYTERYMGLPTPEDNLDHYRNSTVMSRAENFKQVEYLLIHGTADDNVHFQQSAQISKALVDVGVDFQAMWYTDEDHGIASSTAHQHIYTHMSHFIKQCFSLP", "assay": "Protease assay with DPP-4 (HPLC)", "format": "in vitro ADME", "details": "TBS pH 8.0, 37° C., monitored seven days"}, "[5]": {"biological_target": "human GLP-1 receptor (Homo sapiens, UniProt P43220)", "sequence (P43220 24-463)": "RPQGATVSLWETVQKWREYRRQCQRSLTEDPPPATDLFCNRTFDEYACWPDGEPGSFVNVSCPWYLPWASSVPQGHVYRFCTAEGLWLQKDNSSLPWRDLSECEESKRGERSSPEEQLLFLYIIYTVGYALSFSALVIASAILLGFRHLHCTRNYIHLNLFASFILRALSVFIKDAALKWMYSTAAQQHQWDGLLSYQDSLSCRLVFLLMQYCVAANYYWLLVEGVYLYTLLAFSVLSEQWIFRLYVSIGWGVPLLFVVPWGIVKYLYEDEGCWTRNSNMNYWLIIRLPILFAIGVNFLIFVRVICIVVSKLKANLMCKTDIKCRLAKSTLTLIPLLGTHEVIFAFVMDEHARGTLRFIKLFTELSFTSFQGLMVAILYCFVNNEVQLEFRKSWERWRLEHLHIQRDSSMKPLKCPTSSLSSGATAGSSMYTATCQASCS", "assay": "GLP-1R activation monitored by cAMP production in HEK293 cells"}}, "data": [{"smiles": "CC[C@H](C)[C@H](NC(=O)[C@H](Cc1ccccc1)NC(=O)[C@H](CCC(=O)O)NC(=O)[C@H]1CCC[C@@H]1NC(=O)[C@H](C)NC(=O)[C@H](C)NC(=O)[C@H](CCC(N)=O)NC(=O)[C@H]1CCC[C@@H]1NC(=O)[C@H](CCC(=O)O)NC(=O)[C@H](CC(C)C)NC(=O)[C@H](Cc1ccc(O)cc1)NC(=O)[C@H]1CCC[C@@H]1NC(=O)[C@H](CO)NC(=O)C(C)(C)NC(=O)[C@H](CC(=O)O)NC(=O)[C@H](CO)NC(=O)[C@@H](NC(=O)[C@H](Cc1ccccc1)NC(=O)[C@@H](NC(=O)CNC(=O)[C@H](CCC(=O)O)NC(=O)C(C)(C)NC(=O)[C@@H](N)Cc1c[nH]cn1)[C@@H](C)O)[C@@H](C)O)C(=O)N[C@H]1CCC[C@@H]1C(=O)N[C@@H](Cc1c[nH]c2ccccc12)C(=O)N[C@@H](CC(C)C)C(=O)N[C@H](C(=O)N[C@H]1CNC[C@@H]1C(=O)NCC(=O)N[C@@H](CCCNC(=N)N)C(=O)NCC(N)=O)C(C)C", "note": "[SEQ. ID. NO: 7]", "values": [{"measurement": "half-life", "setting": "[1]", "value": 12.5, "unit": "min"}, {"measurement": "remaining at 25 min, 40 μM", "setting": "[2]", "value": "> 25", "unit": "%"}, {"measurement": "t1/2 with neprilysin relative to native GLP-1 peptide", "setting": "[3]", "value": "more than 100 times"}, {"measurement": "cleavage by DPP-4 over seven days (in words)", "setting": "[4]", "value": "no cleavage was detected"}, {"measurement": "Max Response (% GLP-1 max)", "setting": "[5]; HEK293 cells, cAMP production", "value": 88, "unit": "% GLP-1 max"}, {"measurement": "cAMP production, AVERAGES at M Concentrations −7", "setting": "[5]; peptide concentration −7 (log M)", "value": 88.32}, {"measurement": "cAMP production, AVERAGES at M Concentrations −8", "setting": "[5]; peptide concentration −8 (log M)", "value": 63.0221}, {"measurement": "cAMP production, AVERAGES at M Concentrations −9", "setting": "[5]; peptide concentration −9 (log M)", "value": 35}, {"measurement": "cAMP production, AVERAGES at M Concentrations −10", "setting": "[5]; peptide concentration −10 (log M)", "value": 4.469}, {"measurement": "cAMP production, AVERAGES at M Concentrations −11", "setting": "[5]; peptide concentration −11 (log M)", "value": 3.504}, {"measurement": "cAMP production, AVERAGES at M Concentrations −12", "setting": "[5]; peptide concentration −12 (log M)", "value": 2.813}, {"measurement": "cAMP production, AVERAGES at M Concentrations −13", "setting": "[5]; peptide concentration −13 (log M)", "value": 3.831}]}]}
